Experimental data reported in publication PMC9574050, “Design, synthesis, and insecticidal activity of a novel series of flupyrimin analogs bearing 1-aryl-1H-pyrazol-4-yl subunits” (Frontiers in Chemistry, 2022).
Read-outs that look alike come from different tables or passages of the source.

Experiments:
Assay type in all cases: in vivo
Aphis craccivora = assay: Insecticidal activity against Aphis craccivora (Potter spray tower); settings: read-out: Mortality rate (%) A. craccivora
Procedure: (§1) Preparation of test agent. Dissolve accurately weighed tested compound in DMF to prepare 1% mother liquor, and then dilute it with distilled water containing 0.1% Tween-80 to corresponding concentrations for later use.
Insecticidal activity against Aphis craccivora ([Liu et al., 2022]). About 30 nymphs of alfalfa aphid were placed on a horsebean leaf dish, and then 2.5 ml of the tested agent was sprayed with Potter spray tower. After treatment, they were cultured in an observation room at 20–22°C. The result was counted 24 h later, and the no-response insect body when it was lightly touched with tweezers was regarded as dead. Each treatment was repeated three times, and DMF without the tested compound was used as a blank control.
(§2) The insecticidal activities of the test compounds against the abovementioned five insects were calculated by the following formula: P1=(K/N)×100, (1) P2=(Pt−P0)/(1−P0)×100, (2) where P1 is the mortality rate; K is the dead insect number; N is the total number of experimental insects; P2 is the corrected mortality rate; Pt is the mortality rate of treatment; P0 is the mortality rate of CK. If the mortality rate of CK is less than 5%, without the required correction, and if the mortality rate of CK is between 5 and 20%, P2 should be calculated according to formula II.

Nilaparvata lugens = assay: Insecticidal activity against Nilaparvata lugens (Potter spray tower); settings: 24 h, read-out: Mortality rate (%) N. lugens
Text: as §1
Insecticidal activity against Nilaparvata lugens ([Ghareeb et al., 2021]). The seedlings with two leaves and one heart were placed in a Petri dish with a bottom diameter of 3 cm and covered with white sand. After the 3rd instar nymphae of N. lugens were stunned by CO2, about 15 nymphae were received in each dish, and then 2.5 ml of the tested agent was sprayed with Potter spray tower. The mortality of N. lugens was investigated 1 day after the treatment. Each treatment was repeated three times, and DMF without the tested compound was used as a blank control.
as §2

Plutella xylostella = assay: Insecticidal activity against Plutella xylostella (soaking method); settings: Plutella xylostella, 48 h, read-out: Mortality rate (%) P. xylostella
Text: as §1
Insecticidal activity against Plutella xylostella ([Yang et al., 2021]). The soaking method was adopted. After soaking a proper amount of radish leaves for 10 s, it was placed in a plastic Petri dish with filter paper and dried naturally in the shade. Each dish was inoculated with 10 2nd instar P. xylostella larvae and placed in an observation room at 22°C with light (16/8 h). The result was counted 2 days later, and the no-response insect body when it was lightly touched with a brush was regarded as dead. Each treatment was repeated three times, and DMF without the tested compound was used as a blank control.
as §2

Chilo suppressalis = assay: Insecticidal activity against Chilo suppressalis (soaking method); settings: 96 h, read-out: Mortality rate (%) C. suppressalis
Text: as §1
Insecticidal activity against Chilo suppressalis ([Huang et al., 2022]). The soaking method was adopted. The Zizania latifolia slices were soaked in a tested solution for 10 s, then taken out, and placed in a plastic Petri dish with filter paper to naturally dry in the shade. […] The result was counted 4 days later, and the no-response insect body when it was lightly touched with a brush was regarded as dead. Each treatment was repeated three times, and DMF without the tested compound was used as a blank control.
as §2

Helicoverpa armigera = assay: Insecticidal activity against Helicoverpa armigera (soaking method); settings: Helicoverpa armigera, 48 h, read-out: Mortality rate (%) H. armigera
Text: as §1
Insecticidal activity against Helicoverpa armigera. The soaking method was adopted ([Yang et al., 2022]). After soaking a proper amount of corn leaves for 10 s, they were placed in a plastic Petri dish with filter paper and dried naturally in the shade. Ten larvae of the 2nd instar H. armigera were attached to each dish and placed in an observation room at 26°C with light (16/8 h). The result was counted 2 days later, and the no-response insect body when it was lightly touched with a brush was regarded as dead. Each treatment was repeated 3 times, and DMF without the tested compound was used as a blank control.
as §2

[1] = 400 μg/mL, 3rd instar nymphae, 1 day after treatment
[2] = 400 μg/mL, 2nd instar larvae, counted 2 days later
[3] = 400 μg/mL, 3rd instar larvae, counted 4 days later
[4] = 25 μg/mL, 2nd instar larvae, counted 2 days later
[5] = 100 μg/mL, 2nd instar larvae, counted 2 days later

| Structure (SMILES) | mortality at 400 µg/mL (Aphis craccivora; 400 μg/mL, counted 24 h later) | mortality at 400 µg/mL (Nilaparvata lugens; [1]) | mortality at 400 µg/mL (Plutella xylostella; [2]) | mortality at 400 µg/mL (Chilo suppressalis; [3]) | mortality at 400 µg/mL (Helicoverpa armigera; [2]) | mortality at 25 µg/mL (Plutella xylostella; [4]) | mortality at 100 µg/mL (Plutella xylostella; [5]) | other results |
| --- | --- | --- | --- | --- | --- | --- | --- | --- |
| CNC(=O)c1cc(Cl)cc(C)c1NC(=O)c1cc(Br)nn1-c1ncccc1Cl [CAT, chlorantraniliprole, reference compound] |  |  |  |  |  |  |  | mortality at 400 µg/mL (Aphis craccivora; 24 h): 0%; mortality at 400 µg/mL (Nilaparvata lugens): 0%; mortality at 25 µg/mL (Plutella xylostella): 100%; mortality at 100 µg/mL (Plutella xylostella): 100%; mortality at 400 µg/mL (Plutella xylostella): 100%; mortality at 100 µg/mL (Chilo suppressalis): 100%; mortality at 400 µg/mL (Chilo suppressalis): 100%; mortality at 400 µg/mL (Helicoverpa armigera): 100% |
| O=C(/N=c1\ccccn1Cc1cnn(-c2ccccc2)c1C(F)(F)F)C(F)(F)F [Compound A1, (E)-2,2,2-trifluoro-N-(1-((1-phenyl-5-(trifluoromethyl)-1H-pyrazol-4-yl)methyl)pyridin-2(1H)-ylidene)acetamide] | 0% | 0% | 76.7% | 0% | 0% |  |  |  |
| O=C(/N=c1\ccccn1Cc1cnn(-c2cccc(F)c2)c1C(F)(F)F)C(F)(F)F [Compound A3, (E)-2,2,2-trifluoro-N-(1-((1-(3-fluorophenyl)-5-(trifluoromethyl)-1H-pyrazol-4-yl)methyl)pyridin-2(1H)-ylidene)acetamide] | 0% | 0% | 100% | 0% | 0% | 0% | 86.7% |  |
| O=C(/N=c1\ccccn1Cc1cnn(-c2ccc(Cl)cc2)c1C(F)(F)F)C(F)(F)F [Compound A4, (E)-N-(1-((1-(4-chlorophenyl)-5-(trifluoromethyl)-1H-pyrazol-4-yl)methyl)pyridin-2(1H)-ylidene)-2,2,2-trifluoroacetamide] | 0% | 0% | 0% | 0% | 0% |  |  |  |
| O=C(/N=c1\ccccn1Cc1cnn(-c2ccc(C(F)(F)F)cc2)c1C(F)(F)F)C(F)(F)F [Compound A5, (E)-2,2,2-trifluoro-N-(1-((5-(trifluoromethyl)-1-(4-(trifluoromethyl)phenyl)-1H-pyrazol-4-yl)methyl)pyridin-2(1H)-ylidene)acetamide] | 0% | 0% | 73.3% | 0% | 0% |  |  |  |
| O=C(/N=c1\ccccn1Cc1cnn(-c2cccc(Cl)c2)c1C(F)F)C(F)(F)F [Compound A6, (E)-N-(1-((1-(3-chlorophenyl)-5-(difluoromethyl)-1H-pyrazol-4-yl)methyl)pyridin-2(1H)-ylidene)-2,2,2-trifluoroacetamide] | 0% | 100% | 50% | 0% | 0% |  |  | mortality at 100 µg/mL (Nilaparvata lugens; 100 μg/mL, 3rd instar nymphae, 1 day after treatment): 0% |
| O=C(/N=c1\ccccn1Cc1cnn(-c2cccc(F)c2)c1C(F)F)C(F)(F)F [Compound A7, (E)-N-(1-((5-(difluoromethyl)-1-(3-fluorophenyl)-1H-pyrazol-4-yl)methyl)pyridin-2(1H)-ylidene)-2,2,2-trifluoroacetamide] | 0% | 0% | 63.3% | 0% | 0% |  |  |  |
| O=C(/N=c1\ccccn1Cc1cnn(-c2ccc(F)cc2)c1C(F)F)C(F)(F)F [Compound A8, (E)-N-(1-((5-(difluoromethyl)-1-(4-fluorophenyl)-1H-pyrazol-4-yl)methyl)pyridin-2(1H)-ylidene)-2,2,2-trifluoroacetamide] | 0% | 0% | 0% | 0% | 0% |  |  |  |
| COCC(=O)/N=c1\ccccn1Cc1cnn(-c2ccccc2)c1C(F)(F)F [Compound B1, (E)-2-methoxy-N-(1-((1-phenyl-5-(trifluoromethyl)-1H-pyrazol-4-yl)methyl)pyridin-2(1H)-ylidene)acetamide] | 0% | 48.9% | 100% | 0% | 0% | 16.7% | 100% |  |
| COCC(=O)/N=c1\ccccn1Cc1cnn(-c2ccccc2Cl)c1C(F)(F)F [Compound B2, (E)-N-(1-((1-(2-chlorophenyl)-5-(trifluoromethyl)-1H-pyrazol-4-yl)methyl)pyridin-2(1H)-ylidene)-2-methoxyacetamide] | 0% | 0% | 100% | 0% | 0% | > 70% | 96.7% |  |
| COCC(=O)/N=c1\ccccn1Cc1cnn(-c2cccc(F)c2)c1C(F)(F)F [Compound B3, (E)-N-(1-((1-(3-fluorophenyl)-5-(trifluoromethyl)-1H-pyrazol-4-yl)methyl)pyridin-2(1H)-ylidene)-2-methoxyacetamide] | 0% | 0% | 100% | 0% | 0% | > 70% | 100% |  |
| COCC(=O)/N=c1\ccccn1Cc1cnn(-c2ccc(C(F)(F)F)cc2)c1C(F)(F)F [Compound B5, (E)-2-methoxy-N-(1-((5-(trifluoromethyl)-1-(4-(trifluoromethyl)phenyl)-1H-pyrazol-4-yl)methyl)pyridin-2(1H)-ylidene)acetamide] | 0% | 0% | 100% | 0% | 0% | 0% | 100% |  |
| O=C(/N=c1\ccccn1Cc1cnn(-c2ccc(C(F)(F)F)cc2)c1C(F)(F)F)C(F)(F)C(F)(F)F [Compound C5, (E)-2,2,3,3,3-pentafluoro-N-(1-((5-(trifluoromethyl)-1-(4-(trifluoromethyl)phenyl)-1H-pyrazol-4-yl)methyl)pyridin-2(1H)-ylidene)propanamide] | 0% |  | 70% | 100% | 0% |  |  | mortality at 100 µg/mL (Chilo suppressalis; 100 μg/mL, 3rd instar larvae, counted 4 days later): 0% |
| O=C(/N=c1\ccccn1Cc1cnn(-c2ccc(F)cc2)c1C(F)F)C(F)(F)C(F)(F)F [Compound C8, (E)-N-(1-((5-(difluoromethyl)-1-(4-fluorophenyl)-1H-pyrazol-4-yl)methyl)pyridin-2(1H)-ylidene)-2,2,3,3,3-pentafluoropropanamide] | 0% | 0% |  | 0% | 0% |  |  |  |
